Here are results for 8 compounds from patent US20230107216A1, “PANTETHEINE DERIVATIVES AND USES THEREOF” (Comet Therapeutics, Inc., priority 2018, published 2023).

Read-outs that look alike come from different tables or passages of the source. Some results are limits rather than exact numbers.

In experiment [1] the test system is Subnormal activation of pyruvate dehydrogenase complex (PDH) primary fibroblasts GM01503 (GM1503A). Briefly: Total NAD+ + NADH and NAD+ (NAD/NADH-Glo), PDH fibroblasts GM01503. Particulars: Homo sapiens, Fibroblast, 24h, read-out: Increase in Total NAD+ + NADH. It is filed as cell-based. The procedure: (§1) Primary adherent fibroblasts were cultured in minimum essential medium (MEM) (Gibco, 25030081) supplemented with 2 mM L-Glutamine (Gibco, 25030081), 15% fetal bovine serum (FBS) (Gibco, 26400044) and 1% penicillin/streptomycin (Gibco, 5140122) at 37° C. and 5% CO2. Cells were collected for either passaging or experiment at ˜70-80% confluence. Cells were obtained by trypsinization and seeded in cell culture microplates either white plate (Thermo Fisher Scientific, 152028) for luminescent measurement or black plate (Thermo Fisher Scientific, 165305) for fluorescent based read out for different assays listed below. Cells were obtained by trypsinization and […] were seeded and allowed to adhere for 16-18 hours to have confluency around 70-80% in the cell well with culture media. After 24 hours prior to measurements (37° C., 5% CO2) media was changed to Dulbecco's Modified Eagle Medium (DMEM, Agilent Seahorse cat #103575-100) with the appropriate supplements as stated below.
(§2) Primary fibroblasts assayed were Propionic Acidemia (PA) (GM03590 Coriell Institute for Medical Research, Tsi 6337 Trans-Hit Bio), Methylmalonic Acidemia (MMA) (Tsi 5224 Trans-Hit Bio), Subnormal activation of pyruvate dehydrogenase complex (PDH) (GM01503 Coriell Institute for Medical Research), Very long-chain acyl-CoA dehydrogenase (VLCAD) (GM17475), Leigh Syndrome (LS) (GM03672, GM13411 Coriell Institute for Medical Research), Pyruvate Carboxylase Deficiency (PC) (GM00444 Coriell Institute for Medical Research). 10 μM of Compounds were added for 2 hours in PA, MMA lines and for 24h for the other fibroblast lines.
Assay was performed according to manufacturer instructions (NAD/NADH-Glo Assay Promega, G9072). The NAD/NADH-Glo Assay is a bioluminescent assay for detecting total oxidized and reduced nicotinamide adenine dinucleotides (NAD+ and NADH, respectively) from which ratio of NAD/NADH can be calculated. Briefly, for every assay a 12-point standard curve was prepared ranging from 400 nM to 0.625 nM. Media was removed and replaced with 50 μl of PBS for both assays.
For individual NAD+ and NADH measurement, 50 μl of 1% DTAB (Sigma Cat #D5047) (cell lysis reagent) in 0.2N NaOH was added to the plate and a total 100 μl of lysate was split into two plates with 50 μl each. 25 μl of 0.4N HCl were added to the NAD+ plate and both NAD+ and NADH plate were heated at 60° C. for 15 minutes. The acid and heat treatment destroyed NADH allowing individual NAD+ measurement while heating in basic conditions destroys NAD+ allowed individual NADH measurements. The plates were allowed to come to room temperature for 10 minutes and Trizma base (Sigma, T1699) was added to the NAD+ plate to neutralize the acid and HCl Trizma hydrochloride (Sigma, T2694) was added to the NADH plate. The NADNADH glo reagent was prepared by adding: 625 μl of NAD cycling substrate, 125 μl of reductase, 125 μl of reductase substrate, 125 μl NAD cycling enzyme to total of the 25 ml of NAD GLO reagent. 1:1 ratio of total volume of reagent was added to the individual NAD+, NADH measurement (total 100 μl) and 50 μl for total NAD/NAH measurement. Luminescence was read between 30-60 minutes within the linear range.
(§3) A total dead cell count was performed as described in Example 817 and only alive cells were used for analysis.

The test system of experiment [2] is Subnormal activation of pyruvate dehydrogenase complex (PDH) primary fibroblasts GM01503. Nature of the experiment: NADP+/NADPH (NADP/NADPH-Glo), PDH fibroblasts GM01503. It is filed as cell-based. The following applies: Homo sapiens, Fibroblast, PDH GM01503 P10, assay condition A (10 mM glucose, 2 mM L-glutamine, 1 mM pyruvate, 10% FBS), 24h, read-out: Increase in Total NADP+ + NADPH. The procedure: as §1, §2
Assay was performed according to manufacturer instructions (NADP+/NADPH-Glo Assay Promega, G9082). Assay required a plate for total measurement of NADP+/NADPH and a plate for individual measurement of NADP+ or NADPH. For every assay a 12-point standard curve is prepared ranging from 400 nM to 0.625 nM. Media is removed and replaced with 50 μl of PBS for both assays.
For individual NADP+/NADPH measurements, 50 μl of 1% DTAB (Sigma, D5047) (cell lysis reagent) in 0.2N NaOH was added to the plates and 100 μl of lysate was split into two plates with 50 μl each from which ratio of NADP/NADPH can be calculated. 25 μl of 0.4N HCl were added to the NADP+ plates and both NADP+ and NADPH plates were heated at 60° C. for 15 minutes. The acid and heat treatment destroyed NADPH allowing individual NADP+ measurements while heating in basic conditions destroys NADP+ allowing individual NADPH measurement. After 15 minutes plates were allowed to come to room temperature and Trizma base (Sigma, T1699) was added to the NADP+ plates to neutralize the acid and HCl Trizma hydrochloride (Sigma, T2694) was added to the NADPH plates. The NADNADPH glo reagent was prepared by adding 125 μl of NAD cycling substrate, 125 μl of reductase, 125 μl of reductase substrate, 125 μl NAD cycling enzyme to a total of the 25 ml of NAD GLO reagent. 1:1 ratio of total volume of reagent was added to the individual NADP+, NADPH measurements (total 100 μl) and 50 μl were added for the total NAD/NADPH measurements. Luminescence was measured for 30-60 minutes within the linear range.
as §3

Experiment [3] deals with Peripheral blood mononuclear cells co-cultured with venular endothelial cells (HUVEC) (LPS system). Nature of the experiment: BioMAP LPS system. It is filed as cell-based, human. The following applies: Homo sapiens, HUVEC, 24 h, 10 uM, procedure of Example 827.
Experiment [4] relates to Bronchial epithelial cells (BE3C system). Nature of the experiment: BioMAP BE3C system (IL-1β, TNFα, IFNγ). It is filed as cell-based, human. Particulars: procedure of Example 831.
The mark [5] stands for this setting: PDH GM1503A P10, assay condition A.
Where [6] appears, read: PDH GM1503A P10, assay condition B.

Consider `CCC(=O)CC(=O)SCCNC(=O)CCNC(=O)[C@H](O)C(C)(C)CO` [Compound 382, (2R)-2,4-dihydroxy-3,3-dimethyl-N-[2-([2-[(3-oxopentanoyl)sulfanyl]ethyl]carbamoyl)ethyl]butanamide], for which the activation at 10 µM in experiment [1] (setting [5]) and in experiment [2] was not below 10% throughout.
Consider `C[C@H](O)CC(=O)CC(=O)SCCNC(=O)CCNC(=O)[C@H](O)C(C)(C)CO` [Compound 1306, (2R)-2,4-dihydroxy-N-[2-[(2-[[(5S)-5-hydroxy-3-oxohexanoyl]sulfanyl]ethyl)carbamoyl]ethyl]-3,3-dimethylbutanamide], for which the activation at 10 µM in experiment [1] (setting [6]) and in experiment [2] was not below 10% throughout.
With `CC(O)C(C(=O)SCCNC(=O)CCNC(=O)[C@H](O)C(C)(C)CO)C(C)O` (stereo partly drawn) [Compound 1285, (2R)-2,4-dihydroxy-N-[2-[(2-[[3-hydroxy-2-(1-hydroxyethyl)butanoyl]sulfanyl]ethyl)carbamoyl]ethyl]-3,3-dimethylbutanamide], the activation at 10 µM in experiment [1] (setting [5]) and in experiment [2] was not below 10% each time.
Turning to `CC(=O)SCCNC(=O)CCNC(=O)[C@H](O)C(C)(C)COC(=O)CN` [Compound 560, (3R)-3-[(2-[[2-(acetylsulfanyl)ethyl]carbamoyl]ethyl)carbamoyl]-3-hydroxy-2,2-dimethylpropyl 2-aminoacetate], the activation at 10 µM in experiment [1] (setting [5]) was not below 10%.
As to `CC(=O)SCCNC(=O)CCNC(=O)[C@H](O)C(C)(C)COC(=O)[C@H](C)N` [Compound 502, (3R)-3-[(2-[[2-(acetylsulfanyl)ethyl]carbamoyl]ethyl)carbamoyl]-3-hydroxy-2,2-dimethylpropyl (2S)-2-aminopropanoate], the activation at 10 µM in experiment [1] (setting [6]) and in experiment [2] was not below 10% throughout. In addition, the inhibition at 10 µM in experiment [3] (read-out: % decrease in IL-8), in experiment [3] (read-out: % decrease in TissueFactor) and in experiment [3] (read-out: % decrease in sPGE2) was not below 10% in each case. The “% decrease in IL-1α” value in experiment [4] (1 uM) is recorded as not below 10%.
Take `CC(=O)OCC(C)(C)[C@@H](OC(C)=O)C(=O)NCCC(=O)NCCSC(C)=O` [Compound 1264, (1R)-3-(acetyloxy)-1-[(2-[[2-(acetylsulfanyl)ethyl]carbamoyl]ethyl)carbamoyl]-2,2-dimethylpropyl acetate]: the activation at 10 µM in experiment [1] (setting [5]) and in experiment [2] was not below 10% throughout. Moreover, the “% decrease in tPA” value in experiment [4] (10 uM) was not below 10%. For the same compound, the inhibition at 10 µM in experiment [4] (Homo sapiens, Epithelial cell, 24 h, 10 uM, read-out: % decrease in MMP-1) is not below 10%.
As for `CC(C)(CO)[C@@H](O)C(=O)NCCC(=O)NCCSC(=O)CCCO` [Compound 1304, (2R)-2,4-dihydroxy-N-[2-([2-[(4-hydroxybutanoyl)sulfanyl]ethyl]carbamoyl)ethyl]-3,3-dimethylbutanamide], the activation at 10 µM in experiment [1] (setting [6]) and in experiment [2] was not below 10% in each case.
For `CC(=O)OCC(C)(C)[C@@H](O)C(=O)NCCC(=O)NCCSC(=O)CC(=O)CCC(=O)O` [Compound 140, 6-[(2-[3-[(2R)-4-(acetyloxy)-2-hydroxy-3,3-dimethylbutanamido]propanamido]ethyl)sulfanyl]-4,6-dioxohexanoic acid], the activation at 10 µM in experiment [1] (setting [5]) and in experiment [2] was not below 10% in each case.
